These results are taken from patent publication US11572353B2, “Alkynyl-substituted heterocyclic compound, preparation method therefor and medical use thereof” (BEIJING INNOCARE PHARMA TECH CO., LTD., priority 2016, dated 2023).

pIC50: −log10 of the molar value. “Also recorded” adds a separate entry of the source. Where two headings read alike, the source gives them in different places. Bounds are passed on as bounds.

Series [1] has as its system RT4 bladder cancer cell line. Briefly: Inhibition on the proliferation of RT4 cells (luminescent cell viability assay). It is filed as cell-based. The settings on record: Homo sapiens, RT-4, 72 hours. The method, then: (§1) CellTilter-Glo reagent (Promega, Cat. No. G7572) consists of CTG lyophilized powder and CTG buffer. Before use, the lyophilized powder needs to be dissolved in the buffer.
(§2) After overnight incubation, 3 μL of DMEM diluted compound was added to each well, which was then gently centrifuged to mix well, and then the 384-well plate was placed in a 37° C., 5% CO2 incubator to continue the culture, and after 72 hours, the plate was taken out and allowed to stand at room temperature for 30 minutes, next added 15 μL of CTG reagent per well, which was warmed up to room temperature, the plate was shaken gently on a shaker for 3 minutes to ensure sufficient cell lysis, allowed to stand 10 minutes to stabilize the luminescence signal, and then read the luminescence signal with EnVision (Perkin Elmer).
(§3) Where Y is the percentage of inhibition, Bottom is the bottom platform value of the S-curve, Top is the top platform value of the S-curve, X is the logarithm of the concentration of the compound to be tested, and slope factor is the slope coefficient of the curve.
The effect of the compounds of the present invention on cell proliferation of the RT4 bladder cancer cell line was assessed using a luminescent cell viability assay (Table 2).
(§4) For the experimental method, please refer to the method for determining the inhibition on the proliferation of Hep3B cells.

Series [2] deals with human recombinant FGFR3 catalytic domain protein (amino acid 399-806) (Homo sapiens (Human), UniProt P22607). As to the kind of experiment: FGFR3 activity inhibition test (HTRF kinase assay). The class given is biochemical. The settings on record: 90 μM ATP. Here is the method: (§5) The effect of the compounds of the present invention on the in vitro activity of FGFR was assessed by measuring the phosphorylation level of the substrate in a kinase reaction using the HTRF kinase assay kit (Table 1).
Chain of human recombinant FGFR3 catalytic domain protein (amino acid 399-806) (P22607 399-806): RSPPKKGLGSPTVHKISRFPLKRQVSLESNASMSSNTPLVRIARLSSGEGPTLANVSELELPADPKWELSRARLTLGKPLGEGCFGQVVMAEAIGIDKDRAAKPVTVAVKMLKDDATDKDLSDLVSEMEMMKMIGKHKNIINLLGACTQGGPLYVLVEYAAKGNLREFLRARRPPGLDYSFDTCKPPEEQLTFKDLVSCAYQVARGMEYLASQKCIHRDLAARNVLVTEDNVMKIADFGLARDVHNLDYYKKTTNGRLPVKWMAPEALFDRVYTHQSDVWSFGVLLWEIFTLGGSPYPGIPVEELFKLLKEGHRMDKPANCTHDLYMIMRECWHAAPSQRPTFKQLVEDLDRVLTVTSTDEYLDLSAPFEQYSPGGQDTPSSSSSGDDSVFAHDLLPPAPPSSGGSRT
(§6) If the IC50 value of a compound is very low, the initial concentration of the compound can be lowered.
(§7) The IC50 value of the compound was calculated from the 10 concentration points using the XLfit software in Excel by the following formula: Y=Bottom+(Top−Bottom)/(1+10^((log IC50−X)*slope factor))
as §3

In series [3] the test system is SNU-16 gastric cancer cell line. Briefly: Inhibition on the proliferation of SNU-16 cells (luminescent cell viability assay). It is filed as cell-based. The settings on record: Homo sapiens, 72 hours. The method, then:
as §1, §2, §3
The effect of the compounds of the present invention on cell proliferation of SNU-16 gastric cancer cell line was assessed using a luminescent cell viability assay (Table 2).
as §4

Series [4] concerns the target human recombinant FGFR1 catalytic domain protein (amino acid 308-731) (Homo sapiens (Human), UniProt P11362). As to the kind of experiment: FGFR1 activity inhibition test (HTRF kinase assay). The settings on record: 40 μM ATP. The class given is biochemical. Here is the method:
as §5, §6, §7, §3
On the technique in general: Time-resolved FRET reads energy transfer from a long-lived donor to a nearby acceptor.

For another series, the system named is Hep3B hepatoma cell line. Briefly: Inhibition on the proliferation of Hep3B cells (luminescent cell viability assay). The class given is cell-based. The settings on record: Homo sapiens, 72 hours. Here is the method: The effect of the compounds of the present invention on cell proliferation of Hep3B hepatoma cell line was assessed using a luminescent cell viability assay (Table 2).
as §1, §2, §3

Series [5] concerns the target human recombinant FGFR2 catalytic domain protein (amino acid 400-821) (Homo sapiens (Human), UniProt P21802). As to the kind of experiment: FGFR2 activity inhibition test (HTRF kinase assay). The class given is biochemical. The settings on record: 50 μM ATP. The method, then: as §5, §6, §7, §3
Series [6] relates to FGFR2-overexpressed SNU-16 gastric cancer cell line derived xenograft tumors. The class given is in vivo. The settings on record: for TGI % (tumor growth inhibition) / mean tumor size: day 25. Here is the method: The cells were harvested in 90% confluence and no less than 90% viability, and then counted. […] Mice were inoculated subcutaneously into the right flank with 200 uL of 8×10^6 SNU-16 cells resuspended in 50% Matrigel (purchased from Corning). […] Dosing was initiated on day 0 and effects on tumor growth were evaluated by measuring the percentage of tumor growth inhibition (TGI) at the end of the study. Tolerability was assessed by body weight loss, lethality, and clinical signs of adverse treatment-related side effects. Tumor volume and body weight were measured twice per week during the administration period. The percentage of TGI was determined on day 25 after treatment. The difference between the mean value of tumor volume in the treatment group and that in the vehicle group was analyzed for significance using one-way ANOVA (followed by Dennett's test) at each time point and a P<0.05 was considered to be statistically significant.

The target in series [7] is human recombinant FGFR4 catalytic domain protein (amino acid 460-802) (Homo sapiens (Human), UniProt P22455). Briefly: FGFR4 activity inhibition test (HTRF kinase assay). It is filed as biochemical. The settings on record: 90 μM ATP. The method, then:
as §5, §6, §7, §3

Chain of human recombinant FGFR2 catalytic domain protein (amino acid 400-821) (P21802 400-821): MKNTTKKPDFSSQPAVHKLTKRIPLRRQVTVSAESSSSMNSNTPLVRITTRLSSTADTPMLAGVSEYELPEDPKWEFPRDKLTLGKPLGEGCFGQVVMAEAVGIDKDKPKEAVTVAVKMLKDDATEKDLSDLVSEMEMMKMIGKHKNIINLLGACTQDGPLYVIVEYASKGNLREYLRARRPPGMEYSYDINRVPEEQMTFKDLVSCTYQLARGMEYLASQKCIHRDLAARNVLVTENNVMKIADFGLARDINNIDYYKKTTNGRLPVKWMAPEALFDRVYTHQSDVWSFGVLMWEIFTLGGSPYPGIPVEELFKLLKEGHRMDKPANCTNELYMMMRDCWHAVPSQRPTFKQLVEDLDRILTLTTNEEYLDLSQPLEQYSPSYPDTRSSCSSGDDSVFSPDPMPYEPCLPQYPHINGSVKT
Chain of human recombinant FGFR1 catalytic domain protein (amino acid 308-731) (P11362 other isoform, or with tags, fused parts or gaps): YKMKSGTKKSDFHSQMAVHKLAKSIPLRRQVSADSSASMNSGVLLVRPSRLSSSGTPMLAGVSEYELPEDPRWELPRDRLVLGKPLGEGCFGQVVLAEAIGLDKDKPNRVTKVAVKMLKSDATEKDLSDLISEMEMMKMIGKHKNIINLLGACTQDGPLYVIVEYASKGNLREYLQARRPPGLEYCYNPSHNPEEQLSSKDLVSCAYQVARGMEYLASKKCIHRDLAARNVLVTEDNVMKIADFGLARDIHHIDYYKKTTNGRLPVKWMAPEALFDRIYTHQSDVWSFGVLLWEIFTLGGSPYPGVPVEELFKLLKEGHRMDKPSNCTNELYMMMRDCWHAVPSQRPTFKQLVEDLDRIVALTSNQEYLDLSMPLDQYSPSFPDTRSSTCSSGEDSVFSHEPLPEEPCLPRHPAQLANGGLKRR
Chain of human recombinant FGFR4 catalytic domain protein (amino acid 460-802) (P22455 460-802): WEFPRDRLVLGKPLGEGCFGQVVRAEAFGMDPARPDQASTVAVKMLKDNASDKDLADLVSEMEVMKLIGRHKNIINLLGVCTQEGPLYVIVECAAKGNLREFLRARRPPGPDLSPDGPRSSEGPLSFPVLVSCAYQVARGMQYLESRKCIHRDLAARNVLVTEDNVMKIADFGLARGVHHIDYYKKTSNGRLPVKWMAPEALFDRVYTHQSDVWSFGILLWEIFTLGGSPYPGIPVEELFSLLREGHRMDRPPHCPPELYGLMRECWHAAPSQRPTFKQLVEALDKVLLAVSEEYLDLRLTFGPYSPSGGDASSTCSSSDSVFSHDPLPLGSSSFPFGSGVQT

In general, pIC50 refers to −log10 of the IC50, conventionally taken in molar units. Consider `C=CC(=O)N1CC[C@H](n2nc(C#Cc3cc(OC)cc(OC)c3)c(C(N)=O)c2NC)C1` [Compound 21, (S)-1-(1-acryloylpyrrolidin-3-yl)-3-((3,5-dimethoxyphenyl)ethynyl)-5-(methylamino)-1H-pyrazole-4-carboxamide], for which the pIC50 (in series [1]; in series [2]; in series [3]; in series [4]; in the series on Hep3B hepatoma cell line; in series [5]) was above 8.00 each time. Besides, in series [7], the negative logarithm of the IC50 (pIC50) is above 8.00. For the same molecule, the “TGI % (tumor growth inhibition)” value in series [6] (0.3 mg/kg oral BID for 25 days) turned out to be 91.0%; in series [6] (1 mg/kg oral BID for 25 days) it was 88.3%; in series [6] (3 mg/kg oral BID for 25 days) it was 95.9%; in series [6] (10 mg/kg oral BID for 25 days), 108%. Besides, the mean tumor size in series [6] (0.3 mg/kg oral BID for 25 days) is listed as 240 mm^3; in series [6] (1 mg/kg oral BID for 25 days), 261 mm^3; in series [6] (3 mg/kg oral BID for 25 days), 200 mm^3; in series [6] (10 mg/kg oral BID for 25 days), 103 mm^3. In series [6] (10 mg/kg BID), the locomotor activities result is “without significant decrease of locomotor activities”. For the same molecule, in series [6] (10 mg/kg BID), the “mean body weight loss” value came to 11%. In series [6] (0.3, 1, 3 and 10 mg/kg oral BID), the “anti-tumor activity (overall)” value is reported as “dose-dependently reduced tumor size; also recorded: marked anti-tumor activities”. For the same molecule, the body weight loss entry in series [6] (3, 1 and 0.3 mg/kg BID, during the study) is listed as “no body weight loss”. The tolerability entry in series [6] (3, 1 and 0.3 mg/kg BID, tumor-bearing animals) is listed as “well-tolerated”. Also, the “tolerability (overall summary)” value in series [6] (tumor-bearing animals, summary of study) was “well-tolerated”.
